Legend:
cytokine-stimulated VSMC [1] = assay: Effect of arginine oligomers on NO production in cytokine-stimulated VSMC (NO2, Griess); type: cell-based, rat; details: exposure 5 minutes; observed for 24 hours; free L-arginine at 1 mM
vein grafts = assay: Vein graft model: vessel morphometry 28 days after surgery; type: in vivo, New Zealand white rabbits
Experimental: Male New Zealand white rabbits (3.0-3.5 kg) fed standard diets were anesthetized with a mixture of ketamine (40 mg/kg) and xylazine (5 mg/kg) intramuscularly. The left external jugular vein was exposed through a longitudinal neck incision. The jugular vein was excised, gently flushed and immersed in PBS (control) or PBS containing either L-R7 (10.0 μM) or D-r7 (10.0 μM) for 30 minutes.
The right common carotid artery was exposed and clamped at the both proximal and distal ends. The treated vein segment was washed with PBS and then anastomosed in a reverse end-to-side fashion into the carotid artery, using continuous 8-0 polypropylene sutures. The common carotid artery was ligated and dissected between the two anastomoses, and the wound was closed with 3-0 nylon suture.
Vein graft segments were harvested on the 28th surgical day. Graft segments were fixed in 10% buffered formalin with gentle intraluminal pressure to maintain the physiological graft configuration. The middle portion of the paraffin samples were sectioned (5 μm) and stained with hematoxylin/eosin for light microscopic examination (FIGS. 8A-C). Three sections of each graft, taken at 0.5 mm intervals, were analyzed by planimetry by a observer blinded to the treatment group. The cross-sectional areas of the lumen, intima and media was digitized with the use of the Image Analyst program (Automatrix). The ratio of intima to media (I/M) area was calculated.

cytokine-stimulated VSMC [2] = assay: Effect of arginine oligomers on NO production in cytokine-stimulated VSMC (NO2, Griess); type: cell-based, rat
Experimental: Rat VSMCs were prepared from the media layer of thoracic aorta of Sprague-Dawley rats by the explant method. The cells were cultured in Dulbecco's modified Eagle's medium (DMEM, Gibco BRL, Gaithersburg, Md.) containing 10% fetal calf serum, 100 U/ml penicillin and 100 μg/ml streptomycin at 37° C. under a humidified atmosphere containing 5% CO2. After subconfluent growth, cells were cultured with MEM Select Amine Kit (Gibco BRL, Gaithersburg, Md.) to be treated by specific concentrations of extracellular free L-arginine. Experiments were performed using cultured cells at passage levels of 5-10.
Extracellular NO production was measured as its stable oxidative metabolite, nitrite (NO2). At the end of each incubation, samples of the medium (80 μl) were collected, and NO2 measurement was performed using the Griess reaction facilitated by a commercial calorimetric assay (Cayman Chemical, Ann Arbor, Mich.). Values of NO2 production were corrected with relative cell count assessed by a cell proliferation kit II (XTT) (Boeheringer Mannheim, Germany).
Subconfluent cells were pre-incubated with medium containing 100 μM arginine for 24 hours. The cells were then transiently pretreated with each arginine polymer for 30 minutes. After translocation, the cells were incubated with a mixture of IFN-γ (100 U/ml) and LPS (100 μg/ml) in medium containing 100 μM L-arginine for another 24 hours. In some experiments, L-NMMA (1 mM), a nitric oxide synthase inhibitor, was added to the medium.

vein graft segments = assay: Ex vivo NOx production from vein graft harvested 3 days after surgery; type: in vivo, New Zealand white rabbits; details: vein grafts harvested after 3 days, absence of calcium ionophore
Experimental: Vein grafts were harvested 3 days after surgery, as described in Example 7. Vein graft segments were incubated in 1 me of Hanks' buffered saline solution (HBSS, Irvine Scientific) containing Ca^2+ (1.0 mM) and L-arginine (100 μM, Sigma) at 37° C. for 2 hours. NOx (nitrate and nitrite) production was measured either in the absence (basal) or presence (stimulated) of calcium ionophore (A23187, 10.0 μM, Sigma). Samples of the medium (80 μL) were collected, and NOx measurement was performed using the Griess reaction facilitated by a commercial calorimetric assay (Cayman Chemical).

[3] = tested on: human umbilical vein endothelial cells (ECV304); assay: In vitro translocation of biotin-labeled peptides into endothelial cells; type: cell-based
Experimental: Spontaneously transformed human umbilical vein endothelial cells (ECV304, ATCC) were cultured in medium M199 (Irvine Scientific) containing 10% fetal bovine serum (FBS), 100 IU/ml penicillin and 100 μg/ml of streptomycin (Gibco BRL). Confluent cells were washed and placed in serum-free medium. After 2 hours, the cells were incubated in presence of biotin labeled peptides, as bL-R7, or bD-R7, or bL-K7 (0.1, 1.0, and 10.0 μM). After 30 minutes of incubation, cells were washed 3 times with phosphate-buffered saline (PBS), fixed in ethanol/acetone; washed in PBS; incubated for 30 minutes with peroxidase suppressor (ImmunoPure, Pierce) to block endogenous peroxidase activity; and then incubated with 5 μg/ml of horse-radish peroxidase (HRP) conjugated strepavidin (Pierce) for 30 minutes. Substrate of HRP, diaminobenzidine (DAB, Sigma), was added to the cells. The reaction was terminated by washing in distilled water after a 60-second incubation. This experiment was repeated 3 times.

Rat aortic VSMC = assay: VSMC proliferation assay (XTT); type: cell-based; details: 10.0 μM, 30 minutes, then growth medium 0.5% FBS for 48 hours; vs vehicle
Experimental: Rat aortic VSMC were grown to 50% confluence in 96-well cell culture plates. VSMC were then washed and incubated with serum free DMEM for 48 hours to obtain quiescent nondividing cells. Thereafter, VSMC were treated with vehicle, L-R7 (10.0 μM), or D-R7 (10.0 μM) for 30 minutes. After the treatment, cells were washed, and further incubated with serum containing DMEM (0.5%, FBS). Cells were harvested after 48 hours of incubation. Cell count was performed with commercial cell proliferation assay kit using spectrophotometer (XTT, Boehringer Mannheim). As a negative control, cells treated with vehicle and incubated with DSF were used. As an index of cell proliferation, the OD ratio of each treatment group to negative control group was calculated as an index of cell proliferation.

iNOS protein = assay: Assay for iNOS protein expression (western blotting); type: cell-based, rat; details: 10 μM, 30 minutes exposure, cells stimulated by IFN-γ and LPS
Experimental: In order to clarify the effects of arginine polymer translocation on iNOS expression, iNOS protein concentrations of rat VSMC were analyzed by western blotting. Samples were analyzed from non-stimulated cells, cells stimulated with IFN-γ (100 U/ml) and LPS (100 μg/ml), or R7 (10 μM) pretreated cells which were stimulated with IFN-γ and LPS. Treated cells were washed twice with PBS, and total cell lysates were harvested in 150 μl of lysis buffer containing 150 mM NaCl, 50 mM Tris/Cl, pH 8.0, 1% NP40, and 0.1% SDS. Samples were centrifuged for 5 minutes at 14,000 g, 4° C., to remove insoluble material, and the supernatant was collected. Protein concentrations were measured with the Lowry method. Cell lysates containing 50 μg of protein were boiled for 5 minutes and separated on an 8.0% SDS-polyacrylamide minigel. Eluted proteins were electroblotted onto nitrocellulose membrane (HyBond, Amersham, England). The blots were incubated for 1 hour in 5% non-fat dry milk/0.05% Tween® in Tris buffered saline (TBS) to block non-specific binding of the antibody. Blots were incubated for 3 hours with primary monoclonal antibodies against iNOS protein diluted 1:2,500 in TBS/Tween®. The blots were then incubated with peroxidase labeled gout anti-mouse IgG in the same buffer for 1 hour. […]

jugular vein segments = assay: Ex vivo translocation study, jugular vein segments; set-up: species or system New Zealand white rabbits; details: 10 μM, 30 minutes
Experimental: (§1) After incubation with biotin labeled oligomer, vascular segments were washed, then frozen in OCT compound (Miles Scientific). Frozen sections, 5 μm thick, were fixed with acetone for 10 minutes. Internalized biotin was detected using the staining procedure described in Example 2. Methyl green was used for nuclear counter staining.
(§2) To quantify the efficiency of nuclear translocation, the numbers of both DAB positive nuclei and total nuclei were counted in the intima and media separately at ×400 magnification with a video image analysis system (Automatrix). The frequency of nuclear translocation was expressed as the percent staining of nuclei, defined as the ratio of the number of DAB positive nuclei to that of all nuclei, in the intima and media. Each protocol was repeated 4 times.
Both carotid artery and jugular vein segments of male New Zealand white rabbits were used. To test the dose dependence of R7 translocation, vascular segments were incubated for 30 minutes with either bL-R7 or bD-R7 solution (0.1, 1.0, and 10.0 μM) in serum-free Dulbecco's minimal essential medium (DMEM) (Gibco BRL). To test the incubation time dependence, vascular segments were incubated with 10.0 μM of biotin labeled R7 solution for 10 seconds, 60 seconds, 5 minutes, 10 minutes, and 30 minutes. […]

[4] = tested on: rat vascular smooth muscle cells (VSMC); assay: Translocation of biotin-labeled peptides into cultured VSMC (HRP-streptavidin/DAB staining); type: cell-based; details: 10 μM, 30 minutes, 37° C.
Experimental: In the studies described below, transmembrane transport and cellular uptake of oligomers was assessed by incubating cells or tissue with biotin-oligomer conjugates, followed by treatment with horseradish peroxidase (HRP)-conjugated streptavidin and subsequent incubation with DAB (3,3′-diaminobenzidine), a substrate of the enzyme which produces a highly colored product.
Cultured VSMC (vascular smooth muscle cells) were treated, as described in Example 2, with biotinylated oligomers of arginine or lysine. After incubation, the cells were treated with HRP-streptavidin conjugate, then with DAB. Staining by the oxidation product was observed using light microscopy.
Rat VSMCs were grown on glass microscope slide chambers (Nunc Inc., Naperville, Ill.). Subconfluent cells were washed and placed in serum-free medium. After 2 hours, cells were treated with bR7, or bK7 (0.1 μM, 1.0 μM, 10 μM), at 37° C. for 30 minutes. To assess the role of endocytosis in cellular uptake of the peptides, experiments were performed at 4° C., and also in the presence of sodium azide (1.0%) for 30 minutes prior to exposure to the peptides. To assess the involvement of the basic amino acid transport system y+ in the translocation of peptides into the cell, experiments were performed in the presence of excess extracellular L-arginine (10 mM).
After 30 minutes of incubation with the peptides, cells were washed 3 times with phosphate-buffered saline (PBS), fixed for 5 minutes at −20° C. in ethanol/acetone, washed 3 times in PBS, incubated for 30 minutes with a peroxidase suppressor (ImmunoPure, Pierce, Rockford, Ill.) to block endogenous peroxidase activity and nonspecific binding, washed, and then incubated with 5 μg/ml of horseradish peroxidase (HRP) conjugated strepavidin (Pierce, Rockford, Ill.) for 30 minutes. Cells were washed 3 times with PBS, and a substrate of HRP, DAB (Sigma, St. Louis, […].), was added to the cells. The reaction was terminated by washing in distilled water after a 60-second incubation with DAB. Cell preparations were observed by conventional light microscopy (see FIG. 1). This experimental protocol was repeated 3 times.

[5] = tested on: rabbit carotid artery segment; assay: Ex vivo translocation study, carotid artery segments; set-up: species or system New Zealand white rabbits; details: carotid artery, 10.0 μM, 30 minutes
Experimental: as §1, §2
Both carotid artery and jugular vein segments of male New Zealand white rabbits were used. To test the dose dependence of R7 translocation, vascular segments were incubated for 30 minutes with either bL-R7 or bD-R7 solution (0.1, 1.0, and 10.0 μM) in serum-free Dulbecco's minimal essential medium (DMEM) (Gibco BRL). To test the incubation time dependence, vascular segments were incubated with 10.0 μM of biotin labeled R7 solution for 10 seconds, 60 seconds, 5 minutes, 10 minutes, and 30 minutes. Furthermore, to determine the ability of R7 to penetrate through the vessel wall, vascular segments were ligated one end, R7 containing medium was instilled, and the other end ligated so as to expose only the luminal surface to R7. The luminal surface of the vascular segment was exposed to bL-R7 or bD-R7 (10.0 μM) for 30 minutes. To test the temperature dependence of translocation, vascular segments were incubated with 10.0 μM of biotin labeled R7 solutions at 37° C. or 4° C. To determine the disappearance time course of translocated R7, vascular segments were incubated with biotin labeled R7 solutions (10.0 μM) at 37° C. for 30 minutes, and then reincubated in DMEM with 10% FBS up to 5 days. Vascular segments were harvested at 1, 2 and 5 days after initial incubation.

Substance: hepta-L-arginine [R7]
- NO biosynthesis after 5 minutes exposure (cytokine-stimulated VSMC [1]): sustained increase in NO biosynthesis
- myointima formation (vein grafts): substantially less myointima formation
- intima/media ratio (I/M) (vein grafts; 10.0 μM): 0.4±0.2
- intimal area (vein grafts; 10.0 μM, 30 minutes immersion): 0.5±0.2 mm^2
- reduction of intimal area (vein grafts; 10.0 μM, vs control): more than 70%
- elevation of NO production (cytokine-stimulated VSMC [2]; R7 10 μM pretreatment, free L-arginine up to 1 mM): significant elevation of NO production
- NO production (cytokine-stimulated VSMC [2]; pretreatment 30 minutes, then IFN-γ and LPS, 100 μM extracellular L-arginine): dose-dependent increases in NO production at doses as low as 10 μM
- degree of enhancement of NO production (cytokine-stimulated VSMC [2]; pretreatment 30 minutes, vs. vehicle treated cytokine-stimulated cells): 24±3.8%
- Basal NOx production (vein graft segments): 80±14 nM/mg tissue/hr
- translocation across cytoplasmic and nuclear membranes ([3]; VSMC and endothelial cells in culture): very efficient at translocating across both cytoplasmic and nuclear membranes
- VSMC proliferation (Rat aortic VSMC): significantly inhibited
- expression levels of iNOS (iNOS protein): no effect on the expression levels of iNOS

Substance: biotin-labeled heptalysine [bK7, reference compound]
- biotin staining pattern (jugular vein segments): no stained cells were apparent
- internalized biotin signals ([3]; endothelial cells, 0.1, 1.0, and 10.0 μM, 30 minutes): No internalized biotin signals were detected
- internalized biotin signal (staining) [4]: no internalized biotin signal was observed
- biotin signal in vascular cells [5]: no stained cells were apparent
